The results in this text go back to ChEMBL document CHEMBL1165947, “Synthesis and antitumor activity of 2,5-bis(3'-indolyl)-furans and 3,5-bis(3'-indolyl)-isoxazoles, nortopsentin analogues” (Bioorg Med Chem, 2010).

This assay deals with P388. In words: Cytotoxicity against mouse P388 cells. It is filed as functional, cell-based.

In general, IC50 refers to the midpoint of a concentration-inhibition curve. Higher therefore signals lower potency. The molecule `Brc1ccc2c(-c3nc(-c4c[nH]c5ccccc45)c[nH]3)c[nH]c2c1` [NORTOPSENTIN B] yielded a half-maximal inhibitory concentration (IC50) of 4.5 µM.

Consider `Brc1ccc2c(-c3c[nH]c(-c4c[nH]c5cc(Br)ccc45)n3)c[nH]c2c1` [NORTOPSENTIN A], for which 4.5 µM corresponded to half-maximal inhibition (IC50).
